Experimental data reported in paper PMC8404199, “Structure–Activity Relationships of Triple-Action Platinum(IV) Prodrugs with Albumin-Binding Properties and Immunomodulating Ligands” (Journal of Medicinal Chemistry, 2021).

Tests used:
[1] = test system: phosphorylation of histone H2A.X at position Ser139; experiment: pH2AX signal detection in HCT116 cells; assay type: cell-based, human; conditions: HCT116, 50 µM, 24 h, 5-fold excess AA
Description: HCT116 cells were seeded on polytetrafluoroethylene-printed spot slides (E63424-06, Science Services GmbH, Munich, Germany) at a density of 4000 cells/spot. On the next day, cells were exposed to the compounds for 24 h, at 50 μM and fixed in a 4% formaldehyde solution in phosphate-buffered saline (PBS) with a pH adjusted to 7.4 (158127, Merck, Darmstadt, Germany) for 15 min at RT. Spots were washed thrice with PBS each for 5 min, and samples were then incubated in a blocking buffer [PBS, 5% albumin (Carl Roth, Karlsruhe, Germany), 0.3% Triton X-100 (T8787, Merck, Darmstadt, Germany)] for 1 h at RT. […] Next, samples were incubated with rhodamine-labeled wheat germ agglutinin (RL-1022, Vector Laboratories, California, USA) at a concentration for 5 μg/mL for 15 min at RT, and spots were washed twice in PBS, embedded in vectashield mounting medium with DAPI (VECH-1200, Szabo-Scandic, Vienna, Austria), and analyzed using a LSM700 confocal microscope (Zeiss Axio Observer.Z1, inverse, 63× plan-apochromat NA 1.4 Oil DIC objective). […] Images were analyzed using ImageJ software. […] Then, Alexa Fluor 488 signal (integrated density) was measured and normalized to nuclear area.

HCT116 cells = experiment: Cell cycle analysis in HCT116 cells; assay type: cell-based, human; conditions: HCT116, 50 µM, 24 h, 5-fold excess AA
Description: The cells were seeded at 600,000 cells/well in six-well plates and allowed to recover for 24 h. On the next day, cells were exposed to the compounds for 24 h, then trypsinized, and collected. Subsequently, cells were washed with PBS and centrifuged (400g, 5 min), and the cell pellet was resuspended in 100 μL of 0.9% NaCl solution. The cell suspension was then added dropwise to 1.8 mL of ice-cold 80% ethanol and incubated for 48 h at −20 °C. The fixated cells were centrifuged (6200g, 2 min), and the cell pellet was diluted in 0.5 mL of PBS with 0.1 mg/mL RNAse A (R5503, Merck, Darmstadt, Germany), which was previously heat-activated (10 min at 96 °C), and samples were incubated for 30 min at 37 °C to remove RNA content. Next, to stain DNA, propidium iodide (81845, Merck, Darmstadt, Germany) at a concentration of 5 μg/mL was added, samples were incubated for 30 min on ice and subsequently measured by flow cytometry.

[2] = UHPLC reduction kinetics with dithiothreitol; assay type: physicochemical; conditions: 1 mM complex, 10 mM DTT, 1% DMF, 500 mM phosphate buffer pH 7.4, 20 °C
Description: Figure S 3: Reduction kinetics of reference compounds with AA at 20°C , measured by UHPLC and UV absorption at 220 nm. A: Comparison of OAc/IPAEs with amino -group containing SucCa/IdoEs; B:
Reductive stability of reference compounds with no 1MDT -like ligand. AUC-values were normalized to t = 0. Experimental conditions: 1 mM complex, 10 mM AA in 1% DMF and 500 mM phosphate buffer […]
conditions: 1 mM complex, 10 mM DTT in 1% DMF and 500 mM phosphate buffer (pH 7.4). […]

Treg differentiation = Treg differentiation assay in human PBMC/SKOV3 co-culture; assay type: cell-based; conditions: 50 μM, 5 days, PBMC from three donors co-cultured with SKOV3
Description: PBMCs were thawed and slowly dropped into warm medium at a rate of 1 drop/5 s. PBMCs were then centrifuged (10 min, 400g) and washed with warm AIM V medium (12055091, Thermo Fisher Scientific, Massachusetts, USA). PBMCs were co-cultured with SKOV3 at a ratio of 2:1 (PBMC/SKOV3) in 12-well CytoOne plates (CC7682-7512, Starlab, Hamburg, Germany). In the presence of IL-2 (SRP3085, Merck, Darmstadt, Germany) at a concentration of 80 ng per 10^6, PBMCs were added. To induce Treg differentiation, OKT3 monoclonal CD3 antibody (317302, BioLegend, California, USA) and TGF-β1 CHO (AF-100-21C-10 μg, Eubio, Vienna, Austria) were added at concentrations of 4 μg and 10 ng per 10^6 PBMC, respectively. […] After 3 days, 250 μL of fresh AIM V medium was added, and cells were incubated for another two days. On the day of measurement, supernatant, containing PBMC, was collected.
Cells were washed with PBS and stained using the Aqua Zombie Fixable Viability Kit (423101, BioLegend, California, USA), according to the manufacturer’s instructions. Cells were then stained with fluorescent dye-labeled antibodies, according to the manufacturer’s instructions (Table S7). […] The cleaned up data were analyzed using the gating strategy, as shown in Figure S15 for murine tissue and Figure S16 for human co-culture experiment.

With `Cn1cc(CC([NH3+])C(=O)[O][Pt]23([O]C(=O)NCCCCCN4C(=O)CCC4=O)([NH]C4CCCCC4[NH]2)[O]C(=O)C(=O)[O]3)c2ccccc21.O=C([O-])C(F)(F)F` [SucCa/IdoEs, (OC-6-34)-[(R)-2-Ammonio-3-(1-methyl-1H-indol-3-yl)propanoato][(1R,2R)-1,2-cyclohexanediamino][5-(2,5-dioxo-2,5-dihydro-1H-pyrrolidin-1-yl)pentylcarbamato]oxalatoplatinum(IV) Trifluoroacetate] the “pH2A.X signals upon reduction by AA” value [1] was “increased pH2A.X signals”, the “fraction of cells in G2/M phase upon reduction by AA” value (HCT116 cells) was “increased fraction of cells in the G2/M phase” and the “reduction in the presence of dithiothreitol (in words)” value [2] was “readily reduced”.
For `Cn1cc(C[C@@H](NC(=O)[O][Pt]2([O]C(=O)CCCCCN3C(=O)CCC3=O)[O]C(=O)C(=O)[O]2)C(=O)O)c2ccccc21.N[C@@H]1CCCC[C@H]1N` [SucEs/IdoCa], the “Treg differentiation (frequency of Treg in CD4+ T cells)” value (Treg differentiation) was “significantly reduced Treg differentiation”.
For `Cn1cc(C[C@@H]([NH3+])C(=O)[O][Pt]2([O]C(=O)CCCCCN3C(=O)CCC3=O)[O]C(=O)C(=O)[O]2)c2ccccc21.N[C@@H]1CCCC[C@H]1N.O=C([O-])C(F)(F)F` [SucEs/IdoEs, (OC-6-44)-[(R)-2-Ammonio-3-(1-methyl-1H-indol-3-yl)propanoato][(1R,2R)-1,2-cyclohexanediamino][6-(2,5-dioxopyrrolidin-1-yl)hexanoato]oxalatoplatinum(IV) Trifluoroacetate], the “pH2A.X signals upon reduction by AA” value [1] was “increased pH2A.X signals” and the “fraction of cells in G2/M phase upon reduction by AA” value (HCT116 cells) was “increased fraction of cells in the G2/M phase”.
